Measured values taken from patent US20240124504A1, “AROMATIC HETEROCYCLIC COMPOUND, AND PHARMACEUTICAL COMPOSITION AND APPLICATION THEREOF” (GT APEIRON THERAPEUTICS LIMITED, priority 2020, published 2024).

Test system: Caco-2 cells
Assay: Caco-2 membrane permeability and efflux rate
Format: in vitro ADME
Details: Caco-2, 5 μM, 2 hours; for Papp(B-A): basal end to top end; for Papp(A-B): top end to basal end
Outline: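 Caco-2 monolayers after 14-18 days' culture; compound at 5 μM final in HBSS (10 mM HEPES, pH 7.4), apical-to-basal and basal-to-apical, 2 h at 37° C. LC/MS/MS gives Papp (10-6 cm/s) and efflux ratio; lucifer yellow checks monolayer integrity.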

ER (efflux rate) | Papp(B-A) | Papp(A-B) | Structure (SMILES)
15.3 | 34.09 10^−6, cm/s | 2.23 10^−6, cm/s | CP(C)(=O)c1cccc2c(-c3nc(NC4(CO)CCOC4)ncc3C(F)(F)F)c[nH]c12 (single isomer, unassigned) [Compound 119]
6.03 | 35.08 10^−6, cm/s | 5.82 10^−6, cm/s | CC(O)[C@H](C)Nc1ncc(C(F)(F)F)c(-c2c[nH]c3c(P(C)(C)=O)cccc23)n1 (single isomer, unassigned) [Compound 130]
12.7 | 36.73 10^−6, cm/s | 2.89 10^−6, cm/s | CP(C)(=O)c1cccc2c(-c3nc(NCC4CC4CO)ncc3C(F)(F)F)c[nH]c12 (single isomer, unassigned) [Compound 144]
5.95 | 27.87 10^−6, cm/s | 4.68 10^−6, cm/s | CC(CO)CNc1ncc(C(F)(F)F)c(-c2c[nH]c3c(P(C)(C)=O)cccc23)n1 (single isomer, unassigned) [Compound 150]
